Where two headings read alike, the source gives them in different places.
Columns and labels:
CB1 [1] = target: T1, CB1 (Mus musculus, UniProt P47746); assay: biochemical
[2] = test system: CB1 -/- mouse brain membranes; format: biochemical
mice = details: mouse
mouse brain MAGL = target: T2, mouse brain MAGL (Mus musculus, UniProt O35678); assay: MAGL activity in mouse brain membranes; format: biochemical; details: read-out: MAGL IC50
T2 sequence (O35678 1-303): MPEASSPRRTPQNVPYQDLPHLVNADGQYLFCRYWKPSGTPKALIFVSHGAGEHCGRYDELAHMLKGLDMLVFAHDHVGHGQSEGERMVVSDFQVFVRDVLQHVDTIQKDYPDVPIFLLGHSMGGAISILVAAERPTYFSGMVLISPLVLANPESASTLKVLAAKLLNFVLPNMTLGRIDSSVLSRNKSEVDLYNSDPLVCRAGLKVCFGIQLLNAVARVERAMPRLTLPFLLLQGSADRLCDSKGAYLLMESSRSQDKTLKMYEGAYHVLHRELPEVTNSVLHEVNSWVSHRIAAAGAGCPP

[3] = target: eCB1 (CB1 overexpressed in HEK293 cells) (Mus musculus, UniProt P47746); format: binding
CB1 [4] = target: T1, CB1; assay: biochemical; format: binding

T1 sequence (P47746 whole entry): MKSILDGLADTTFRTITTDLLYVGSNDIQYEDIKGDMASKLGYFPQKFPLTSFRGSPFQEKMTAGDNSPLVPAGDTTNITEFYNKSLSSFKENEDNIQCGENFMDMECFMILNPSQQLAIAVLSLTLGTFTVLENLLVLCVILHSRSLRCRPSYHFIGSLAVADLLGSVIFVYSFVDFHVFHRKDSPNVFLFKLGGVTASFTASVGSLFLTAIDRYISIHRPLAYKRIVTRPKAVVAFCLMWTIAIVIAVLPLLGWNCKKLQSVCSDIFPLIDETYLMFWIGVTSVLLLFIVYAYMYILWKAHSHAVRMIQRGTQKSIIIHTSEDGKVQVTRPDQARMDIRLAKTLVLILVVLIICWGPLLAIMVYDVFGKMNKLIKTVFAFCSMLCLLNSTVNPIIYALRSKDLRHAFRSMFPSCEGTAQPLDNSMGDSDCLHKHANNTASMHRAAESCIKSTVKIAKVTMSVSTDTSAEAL
Sequence of eCB1 (CB1 overexpressed in HEK293 cells) (P47746 whole entry): as above

CCCCC/C=C\C/C=C\C/C=C\C/C=C\CCCC(=O)OC(CO)CO [2-AG, 2-arachidonoylglycerol]
EC50 (CB1 [1]; EC50 for stimulation of GTPγS binding): 1000 nM | EC50 (CB1 [1]; EC50 of 2-AG for stimulation of GTPγS binding after preincubation with OP 1): 300 nM | Stimulation of GTPγS binding in CB1 -/- membranes [2]: significant

CCCCCCCCCCCCP(=O)(OCC)Oc1nc(Cl)c(Cl)cc1Cl (centres unmarked) [OP 3]
In vivo effectiveness in modulating behavior and brain 2-AG and AA levels (mice): not effective in vivo

CCCCCCCCCCCCP(=O)(OCC)Oc1ccc(C#N)cc1 (centres unmarked) [OP 4]
IC50 (mouse brain MAGL; substrate 2-AG): 70 nM | IC50 (mouse brain MAGL; substrate [14C]1-oleoylglycerol): 70 nM | In vivo effectiveness in modulating behavior and brain 2-AG and AA levels (mice): very effective in vivo in all respects

CCOP(=O)(OCC)Oc1nc(Cl)c(Cl)cc1Cl [OP 7, chlorpyrifos oxon]
Sensitivity of eCB1 [3H]CP55940 binding [3]: not sensitive

CCCCCCCCCCCCS(=O)(=O)F [OS 9]
In vivo effectiveness in modulating behavior and brain 2-AG and AA levels (mice): same in vivo effects as OP 1 and OP 4

CCCCCCCCS(=O)(=O)F [OS 10]
In vivo effectiveness in modulating behavior and brain 2-AG and AA levels (mice): same in vivo effects as OP 1 and OP 4

CCCCCCC(C)(C)c1ccc([C@@H]2C[C@H](O)CC[C@H]2CCCO)c(O)c1 [[^3H]CP55940]
Kd (CB1 [4]): 0.86 nM

Reference: PMC2593629 (Bioorganic & medicinal chemistry letters, 2008)
